In US10633407B2, “14-membered ketolides and methods of their preparation and use” (President and Fellows of Harvard College, priority 2014, dated 2020):
Converted amounts (≈) assume the structure as drawn.

Experiments:
Format in all cases: cell-based
E. faecalis ATCC 29212 = test: CLSI broth dilution MIC determination; conditions: Enterococcus faecalis, ATCC29212, E. faecalis ATCC 29212 (MP-24); read-out: MIC
[1] = tested on: K. pneumoniae MP-546 Clinical-MDR; test: CLSI broth dilution MIC determination; conditions: Klebsiella pneumoniae, read-out: MIC
[2] = tested on: E. faecalis Vancomycin-resistant; test: CLSI broth dilution MIC determination; conditions: Enterococcus faecalis, E. faecalis Vancomycin-resistant (UNT-039); read-out: MIC
[3] = tested on: K. pneumoniae MP-548 clinical; test: CLSI broth dilution MIC determination; conditions: Klebsiella pneumoniae, MP548CLINICAL, read-out: MIC
P. aeruginosa MP-7 PAO1 = test: CLSI broth dilution MIC determination; conditions: Pseudomonas aeruginosa, read-out: MIC
S. aureus MRSA: USA100 = test: CLSI broth dilution MIC determination; conditions: Staphylococcus aureus; S. aureus MRSA: USA100 (MP-618 UNT-096); read-out: MIC
Summary of the method: (§1)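 The lowest inhibitory concentration was found by broth dilution done to CLSI standards. Resistance genotypes on the panel can be constitutive or inducible, and azithromycin and solithromycin accompany many tests as reference macrolides.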

E. coli ATCC 25922 = test: CLSI broth dilution MIC determination; conditions: Escherichia coli, ATCC25922, E. coli ATCC 25922 (MP-4); read-out: MIC
Summary of the method: as §1

[4] = tested on: S. aureus (MRSA) MP-513 ST-228 cErm (Clinical-cErm); test: CLSI broth dilution MIC determination; conditions: Staphylococcus aureus, read-out: MIC
Summary of the method: as §1

S. pneumoniae ATCC 49619 = test: CLSI broth dilution MIC determination; conditions: Streptococcus pneumoniae, ATCC49619, S. pneumoniae ATCC 49619 (MP-21); read-out: MIC
Summary of the method: as §1

[5] = tested on: E. coli MP-532 clinical-cErmB; test: CLSI broth dilution MIC determination; conditions: Escherichia coli
Summary of the method: as §1

[6] = tested on: S. pneumoniae mef A genotype (first strain so labelled); test: CLSI broth dilution MIC determination; conditions: Streptococcus pneumoniae, first strain (MP-626 UNT-038)
Summary of the method: as §1

[7] = tested on: S. aureus MP-17 ATCCBAA-977 (BAA 977 iErm); test: CLSI broth dilution MIC determination; conditions: Staphylococcus aureus; S. aureus MP-17, ATCCBAA-977, iErm; read-out: MIC
Summary of the method: as §1

S. aureus USA600, GISA = test: CLSI broth dilution MIC determination; conditions: Staphylococcus aureus; S. aureus USA600, GISA (MP-619 UNT-120); read-out: MIC
Summary of the method: as §1

[8] = tested on: S. pneumoniae mef A genotype (second strain so labelled); test: CLSI broth dilution MIC determination; conditions: Streptococcus pneumoniae, second strain (MP-627 UNT-039), read-out: MIC
Summary of the method: as §1

E. coli MP-541 clinical = test: CLSI broth dilution MIC determination; conditions: Escherichia coli, MP541CLINICAL, read-out: MIC
Summary of the method: as §1

S. aureus ATCC 29213 = test: CLSI broth dilution MIC determination; conditions: Staphylococcus aureus, ATCC29213; S. aureus ATCC 29213 (MP-12); read-out: MIC
Summary of the method: as §1

S. aureus erm A genotype = test: CLSI broth dilution MIC determination; conditions: Staphylococcus aureus; S. aureus erm A genotype (MP-620 UNT-146); read-out: MIC
Summary of the method: as §1

[9] = tested on: E. coli MP-9 ATCC25922:tolC; test: CLSI broth dilution MIC determination; conditions: Escherichia coli, ATCC25922
Summary of the method: as §1

S. aureus MRSA: USA300 = test: CLSI broth dilution MIC determination; conditions: Staphylococcus aureus; S. aureus MRSA: USA300 (MP-549, msr(a)); read-out: MIC
Summary of the method: as §1

[10] = tested on: A. baumannii MP-577 Clinical-AZT low; test: CLSI broth dilution MIC determination; conditions: Acinetobacter baumannii, read-out: MIC
K. pneumoniae ATCC 10031 = test: CLSI broth dilution MIC determination; conditions: Klebsiella pneumoniae, ATCC10031, K. pneumoniae ATCC 10031 (MP-14); read-out: MIC
P. aeruginosa ATCC 27853 = test: CLSI broth dilution MIC determination; conditions: Pseudomonas aeruginosa, ATCC27853; P. aeruginosa ATCC 27853 (MP-3); read-out: MIC
[11] = tested on: strains of B. subtilis, E. coli, S. aureus, S. pneumoniae, and H. influenzae, including several multidrug-resistant strains; test: CLSI broth dilution MIC determination, whole panel of strains; conditions: from MIC data, Tables B1-B13
Description: MIC data was collected for the novel macrolides that this platform has produced against over 21 unique strains of B. subtilis, E. coli, S. aureus, S. pneumoniae, and H. influenzae, including several multidrug-resistant strains, with a special focus on macrolide resistant mechanisms (vide supra). Azithromycin (Azithro) and Solithromycin (Solithro) were included as a control macrolides in many cases. CLSI standard procedures for broth dilution MIC determination were used. […] These genotypes can be constitutive or inducible.

[12] = tested on: P. aeruginosa MP-8 PAO1:mex (mex-oprM-deletion); test: CLSI broth dilution MIC determination; conditions: Pseudomonas aeruginosa, PAO1
A. baumannii ATCC 19606 = test: CLSI broth dilution MIC determination; conditions: Acinetobacter baumannii, ATCC19606; A. baumannii ATCC 19606 (MP-15); read-out: MIC
S. pyogenes ATCC 19615 = test: CLSI broth dilution MIC determination; conditions: Streptococcus pyogenes, ATCC19615, S. pyogenes ATCC 19615 (MP-19); read-out: MIC
[13] = tested on: S. pyogenes Macrolide-resistant; test: CLSI broth dilution MIC determination; conditions: Streptococcus pyogenes, S. pyogenes Macrolide-resistant (MP-625 UNT-014); read-out: MIC
[14] = tested on: A. baumannii MP-576 Clinical-MDR; test: CLSI broth dilution MIC determination; conditions: Acinetobacter baumannii, read-out: MIC

SMILES: CC[C@H]1OC(=O)[C@@](C)(F)C(=O)[C@H](C)[C@@H](O[C@@H]2OC(C)CC(N(C)C)C2O)[C@](C)(OC)C[C@@H](C)C(=O)[C@H](C)[C@H]2N(CC#CCn3cc(-c4cccc(N)n4)nn3)C(=O)O[C@]12C (stereo partly shown) [FSM-100573]
- MIC (E. faecalis ATCC 29212): < 0.03 µg/mL
- MIC [1]: 64 µg/mL (≈ 76 µM)
- MIC [2]: 1 µg/mL (≈ 1.19 µM)
- MIC [3]: 32 µg/mL (≈ 38 µM)
- MIC (P. aeruginosa MP-7 PAO1): 32 µg/mL (≈ 38 µM)
- MIC (S. aureus MRSA: USA100): 16 µg/mL (≈ 19 µM)
- MIC (E. coli ATCC 25922): 8 µg/mL (≈ 9.5 µM)
- MIC [4]: 16 µg/mL (≈ 19 µM)
- MIC (S. pneumoniae ATCC 49619): < 0.03 µg/mL
- MIC [5]: 64 µg/mL (≈ 76 µM)
- MIC [6]: < 0.03 µg/mL
- MIC [7]: 0.06 µg/mL (≈ 0.0713 µM)
- MIC (S. aureus USA600, GISA): 16 µg/mL (≈ 19 µM)
- MIC [8]: < 0.03 µg/mL
- MIC (E. coli MP-541 clinical): 16 µg/mL (≈ 19 µM)
- MIC (S. aureus ATCC 29213): 0.06 µg/mL (≈ 0.0713 µM)
- MIC (S. aureus erm A genotype): 16 µg/mL (≈ 19 µM)
- MIC [9]: 2 µg/mL (≈ 2.38 µM)
- MIC (S. aureus MRSA: USA300): 0.06 µg/mL (≈ 0.0713 µM)
- MIC [10]: 16 µg/mL (≈ 19 µM)
- MIC (K. pneumoniae ATCC 10031): 2 µg/mL (≈ 2.38 µM)
- MIC (P. aeruginosa ATCC 27853): 16 µg/mL (≈ 19 µM)
- potency compared with solithromycin [11]: even more potent
- MIC [12]: 4 µg/mL (≈ 4.75 µM)
- MIC (A. baumannii ATCC 19606): 2 µg/mL (≈ 2.38 µM)
- MIC (S. pyogenes ATCC 19615): < 0.03 µg/mL
- MIC [13]: < 0.03 µg/mL
- MIC [14]: 64 µg/mL (≈ 76 µM)
